Measured values from patent US20180127374A1, “BE[…] AS OPIOID RECEPTORS MODULATORS” (Purdue Pharma L.P., priority 2012, published 2018).
Read-outs that look alike come from different tables or passages of the source.

Columns and labels:
κ opioid receptor [1] = biological target: T1, κ opioid receptor (Homo sapiens, UniProt P41145); assay: κ-opioid receptor [35S]GTPγS functional assay; format: biochemical; set-up: expressed in transfected cells; conditions: for Emax: relative to the effect elicited by U69,593
Method: Functional [^35S]GTPγS binding assays were conducted as follows. κ opioid receptor membrane solution was prepared by sequentially adding final concentrations of 0.026 μg/μl κ membrane protein (in-house), 10 μg/mL saponin, 3 μM GDP and 0.20 nM [^35S]GTPγS to binding buffer (100 mM NaCl, 10 mM MgCl2, 20 mM HEPES, pH 7.4) on ice. The prepared membrane solution (190 μl/well) was transferred to 96-shallow well polypropylene plates containing 10 μl of 20× concentrated stock solutions of agonist prepared in DMSO. Plates were incubated for 30 min at a temperature of about 25° C. with shaking.
κ GTP EC50 is the concentration of a compound providing 50% of the maximal response for the compound at a κ receptor.
κ GTP Emax (%) is the maximal effect elicited by a compound relative to the effect elicited by U69,593.

μ-opioid receptor [2] = biological target: T2, μ-opioid receptor (Homo sapiens, UniProt P35372); assay: μ-opioid receptor radioligand dose-displacement binding assay
Method: Radioligand dose-displacement binding assays for μ-opioid receptors used 0.3 nM [^3H]-diprenorphine (Perkin Elmer, Shelton, Conn.), with […] membrane protein/well in a final volume of […] binding buffer (10 mM MgCl2, 1 mM EDTA, 5% DMSO, 50 mM HEPES, pH 7.4). Reactions were carried out in the absence or presence of increasing concentrations of unlabeled naloxone. All reactions were conducted in 96-deep well polypropylene plates for 2 hr at room temperature. […] The data were analyzed using the one-site competition curve fitting functions in GraphPad PRISM™ v. 3.0 or higher (San Diego, Calif.), or an in-house function for one-site competition curve-fitting.
Target sequence in this assay (P35372 whole entry): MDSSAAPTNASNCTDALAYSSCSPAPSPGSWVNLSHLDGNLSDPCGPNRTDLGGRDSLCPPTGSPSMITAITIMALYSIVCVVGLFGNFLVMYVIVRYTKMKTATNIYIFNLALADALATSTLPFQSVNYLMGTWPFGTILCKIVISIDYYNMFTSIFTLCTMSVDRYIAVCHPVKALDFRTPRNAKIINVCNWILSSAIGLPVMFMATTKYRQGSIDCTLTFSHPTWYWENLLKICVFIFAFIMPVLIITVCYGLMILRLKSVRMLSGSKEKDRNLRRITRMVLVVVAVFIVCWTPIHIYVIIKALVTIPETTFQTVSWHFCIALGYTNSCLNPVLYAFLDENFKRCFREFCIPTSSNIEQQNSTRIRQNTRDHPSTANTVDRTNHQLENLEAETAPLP

κ opioid receptor [3] = biological target: T1, κ opioid receptor; assay: κ-opioid receptor radioligand dose displacement binding assay; set-up: expressed in transfected cells; host or cells: HEK-293
Method: Membranes from recombinant HEK-293 cells expressing the human κ opioid receptor (κ) (cloned in house) were prepared by lysing cells in ice cold hypotonic buffer (2.5 mM MgCl2, 50 mM HEPES, pH 7.4) (10 mL/10 cm dish) followed by homogenization with a tissue grinder/Teflon pestle. Membranes were collected by centrifugation at 30,000×g for 15 min at 4° C. and pellets were resuspended in hypotonic buffer to a final concentration of 1-3 mg/mL. Protein concentrations were determined using the BioRad protein assay reagent with bovine serum albumen as standard. Aliquots of κ receptor membranes were stored at […]

μ-opioid receptor [4] = biological target: T2, μ-opioid receptor; assay: μ-opioid receptor [35S]GTPγS functional assay; format: biochemical; set-up: purchased Perkin Elmer, Shelton, Conn; conditions: for Emax: relative to the effect elicited by DAMGO; for EC50: μ-receptor membranes, read-out: GTPγS μ EC50
Method: [^35S]GTPγS functional assays were conducted using freshly thawed μ-receptor membranes (Perkin Elmer, Shelton, Conn.). Assay reactions were prepared by sequentially adding the following reagents to binding buffer (100 mM NaCl, 10 mM MgCl2, 20 mM HEPES, pH 7.4) on ice (final concentrations indicated): membrane protein (0.026 mg/mL), saponin ([…]), GDP ([…]) and [^35S]GTPγS (0.20 nM; Perkin Elmer, Shelton, Conn.). The prepared membrane solution (190 μl/well) was transferred to 96-shallow well polypropylene plates containing 10 μI of 20× concentrated stock solutions of the agonist [D-Ala^e, N-methyl-Phe^4 Gly-ol^5]-enkephalin (DAMGO) prepared in dimethyl sulfoxide (DMSO). Plates were incubated for 30 min at about 25° C. with shaking. […] Data were analyzed using the sigmoidal dose-response curve fitting functions in GraphPad PRISM v. 3.0, or an in-house function for non-linear, sigmoidal dose-response curve-fitting.
μ GTP EC50 is the concentration of a compound providing 50% of the maximal response for the compound at a μ-opioid receptor.
μ GTP Emax (%) is the maximal effect elicited by a compound relative to the effect elicited by DAMGO, a standard μ agonist. Generally, the μ GTP Emax (%) value measures the efficacy of a compound to treat or prevent pain or other Conditions.
Target sequence in this assay (P35372 whole entry, species assumed): as the sequence (P35372 whole entry) above

δ opioid receptor = δ opioid receptor (Homo sapiens, UniProt P41143); assay: δ-opioid receptor radioligand dose-displacement binding assay
Method: δ-opioid Receptor Binding Assay Procedures were conducted as follows. Radioligand dose-displacement assays used 0.3 nM [^3H]-Naltrindole (Perkin Elmer, Shelton, Conn.; 33.0 Ci/mmole) with 5 μg membrane protein (Perkin Elmer, Shelton, Conn.) in a final volume of 500 μl binding buffer (5 mM MgCl2, 5% DMSO, 50 mM Trizma base, pH 7.4). Non-specific binding was determined in the presence of 25 μM unlabeled naloxone. All reactions were performed in 96-deep well polypropylene plates for 1 hr at a temperature of about 25° C. Binding reactions were terminated by rapid filtration onto 96-well Unifilter GF/C filter plates (Perkin Elmer, Shelton, Conn.) presoaked in 0.5% polyethylenimine (Sigma). Harvesting was performed using a 96-well tissue harvester (Perkin Elmer, Shelton, Conn.) followed by five filtration washes with 500 μl ice-cold binding buffer. Filter plates were subsequently dried at 50° C. for 1-2 hours. Fifty μl/well scintillation cocktail (Perkin Elmer, Shelton, Conn.) was added and plates were counted in a Packard Top-Count for 1 min/well.

[5] = κ membrane protein (in-house), read-out: GTPγS κ EC50
[6] = [3H]-diprenorphine displacement, read-out: Ki (nM) Opioid Receptor μ
[7] = [3H]-U69,593 displacement, HEK-293 membranes, read-out: Ki (nM) Opioid Receptor κ

T1 sequence (P41145 whole entry): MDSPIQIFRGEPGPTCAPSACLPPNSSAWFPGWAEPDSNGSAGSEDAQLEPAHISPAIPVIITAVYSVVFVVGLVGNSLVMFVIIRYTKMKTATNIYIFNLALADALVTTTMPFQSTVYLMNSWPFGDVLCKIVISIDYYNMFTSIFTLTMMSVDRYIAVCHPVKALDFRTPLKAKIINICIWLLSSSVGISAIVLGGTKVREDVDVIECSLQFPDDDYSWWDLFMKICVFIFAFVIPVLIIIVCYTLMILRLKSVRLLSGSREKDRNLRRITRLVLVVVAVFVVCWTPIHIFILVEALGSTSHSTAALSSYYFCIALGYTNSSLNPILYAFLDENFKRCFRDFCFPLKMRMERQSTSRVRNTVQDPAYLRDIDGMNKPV
Sequence of δ opioid receptor (P41143 whole entry): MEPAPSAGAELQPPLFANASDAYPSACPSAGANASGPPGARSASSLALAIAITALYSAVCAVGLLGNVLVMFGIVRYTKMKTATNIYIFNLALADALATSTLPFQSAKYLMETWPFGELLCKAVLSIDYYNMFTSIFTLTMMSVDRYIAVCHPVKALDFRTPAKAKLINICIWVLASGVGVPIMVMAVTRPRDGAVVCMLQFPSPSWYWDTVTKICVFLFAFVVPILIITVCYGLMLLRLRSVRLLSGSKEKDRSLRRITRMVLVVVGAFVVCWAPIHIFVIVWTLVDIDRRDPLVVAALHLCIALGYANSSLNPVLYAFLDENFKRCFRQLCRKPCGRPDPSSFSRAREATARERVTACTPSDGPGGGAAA

Row | SMILES | Emax (κ opioid receptor [1]) [%] | EC50 (κ opioid receptor [1]; [5]) [nM] | Ki (μ-opioid receptor [2]; [6]) [nM] | Ki (κ opioid receptor [3]; [7]) [nM] | Emax (μ-opioid receptor [4]) [%] | EC50 (μ-opioid receptor [4]) [nM] | EC50 (κ opioid receptor [1]) [nM] | Ki (μ-opioid receptor [2]) [nM] | Ki (κ opioid receptor [3]) [nM] | Ki (δ opioid receptor) [nM]
1 | COc1ccc2c(c1)[C@@]1(CCCCNCC(C)C)CCN(CC3CC3)C(C2)[C@@H]1C [Compound 9, 4-((6S,11R)-3-(cyclopropylmethyl)-8-methoxy-11-methyl-1,2,3,4,5,6-hexahydro-2,6-methanobenzo[d]azocin-6-yl)-N-isobutylbutan-1-amine] | 103 | 58.1 | 448 ± 113 | 1.35 ± 0.57 | 60 | 643 |  |  |  | 
2 | COc1ccc2c(c1)[C@@]1(CCCCOCc3ccccc3)CCN(CC3CC3)C(C2)[C@@H]1C [Compound 12, (6S,11R)-6-(4-(benzyloxy)butyl)-3-(cyclopropylmethyl)-8-methoxy-11-methyl-1,2,3,4,5,6-hexahydro-2,6-methanobenzo[d]azocine] | 97.7 | 14.4 | 166 ± 51.8 | 0.27 ± 0.01 | 30.8 | 580 |  |  |  | 
3 | COc1ccc2c(c1)[C@@]1(CCCCO)CCN(CC3CC3)C(C2)[C@@H]1C [Compound 13, 4-((6S,11R)-3-(cyclopropylmethyl)-8-methoxy-11-methyl-1,2,3,4,5,6-hexahydro-2,6-methanobenzo[d]azocin-6-yl)butan-1-ol] | 71.3 |  |  |  |  |  | 296 | 3420 ± 763 | 7.15 ± 0.86 | 16200 ± 3050
4 | COc1ccc2c(c1)[C@@]1(CCCC(=O)N[C@@H](C)C(N)=O)CCN(CC3CC3)C(C2)[C@@H]1C [Compound 14, N—((S)-1-amino-1-oxopropan-2-yl)-4-((6S,11R)-3-(cyclopropylmethyl)-8-methoxy-11-methyl-1,2,3,4,5,6-hexahydro-2,6-methanobenzo[d]azocin-6-yl)butanamide] | 63 | 1050 | 4270 ± 1360 | 44 ± 17.7 | 64 | 1300 |  |  |  | 
5 | CC(C)N1CC[C@@]2(CCCC(N)=O)c3cc(O)ccc3C[C@@H]1[C@@H]2C [Compound 17, 4-((2R,6R,11R)-8-hydroxy-3-isopropyl-11-methyl-1,2,3,4,5,6-hexahydro-2,6-methanobenzo[d]azocin-6-yl)butanamide] | 60.7 | 107 | 165 ± 6.97 | 5 ± 0.53 | 38 | 68.2 |  |  |  | 
6 | C[C@H]1[C@H]2Cc3ccc(O)cc3[C@]1(CCCC(N)=O)CCN2CC1CC1 [Compound 20, 4-((2R,6R,11R)-3-(cyclopropylmethyl)-8-hydroxy-11-methyl-1,2,3,4,5,6-hexahydro-2,6-methanobenzo[d]azocin-6-yl)butanamide] | 58.2 | 6 | 5.38 ± 0.43 | 0.08 ± 0.01 | 19 | 3.18 |  |  |  | 
7 | C[C@H](NC(=O)CCC[C@]12CCN(CC3CC3)[C@H](Cc3ccc(O)cc31)[C@@H]2C)C(N)=O [Compound 22, N—((S)-1-amino-1-oxopropan-2-yl)-4-((2R,6R,11R)-3-(cyclopropylmethyl)-8-hydroxy-11-methyl-1,2,3,4,5,6-hexahydro-2,6-methanobenzo[d]azocin-6-yl)butanamide] | 53.3 | 13.2 | 6.33 ± 1.54 | 0.41 ± 0.08 | 22.3 | 0.7 |  |  |  | 
8 | COC(=O)c1cccc(C(=O)NCC[C@]23CCN(CC4CC4)[C@H](Cc4ccc(OC)cc42)[C@@H]3C)c1 [Compound 26, methyl 3-((2-((2R,6R,11R)-3-(cyclopropylmethyl)-8-methoxy-11-methyl-1,2,3,4,5,6-hexahydro-2,6-methanobenzo[d]azocin-6-yl)ethyl)carbamoyl)benzoate] | 105 | 15.3 | 158 ± 44.3 | 0.51 ± 0.07 | 95 | 46.1 |  |  |  | 
